We go through six molecules from US20210292417A1, “HISTAMINE DIHYDROCHLORIDE COMBINATIONS AND USES THEREOF” (Immune Pharmaceuticals LTD., priority 2016, published 2021).

The target in one experiment is H2R (Homo sapiens, UniProt P25021). The conditions noted are these: thioether group replaced by an ether; cited from earlier work.
Experiment [1] deals with NK cells and CD8+ T cells co-cultured with CD14+ CMML cells. Nature of the experiment: CMML cell-induced lymphocyte cell death, overnight co-culture. The class given is cell-based, human. The settings on record: DPI 3 μM; for CMML-induced lymphocyte apoptosis / cell death: NK cells and CD8+ T cells, HDC 100 μM, catalase 200U/ml, PJ34 0.5 μM. As for the experimental part:
(§1) Lymphocyte cell death. Isolated lymphocyte subsets were co-cultured overnight with primary leukemic monocytes from CMML patients with or without NOX2 inhibitors or other anti-oxidative compounds at 37° C. in 5% CO2. Lymphocyte cell death was assessed by flow cytometry after staining with a LIVE/DEAD® fixable dead cell stain (Life Technologies). In receptor expression assays, purified NK cells where co-cultured overnight with monocytes in the presence or absence of the PARP-1 inhibitor PJ34 ([…]). The following antibodies were used for receptor expression assessment: NKp46-PE (clone: 9E2) and DNAM-1-PE-Cy7 (clone: DX11) from Miltenyi Biotec. NKp80-APC (clone: 4A4.D10) and CD16-BV605 (clone: 3G8) from BD Pharmingen.
Subsets of CD8+ T cells were stained and sorted on a 3-laser […] II flow cytometer (BD Biosciences). The following antibodies were used to distinguish the T cell populations: CD3-Pacific Blue (clone: S4.1) from Life technologies. CD8-APC-H7 (clone: SK1), CD45RA-APC (clone: HI100), CD45RO-PE (clone: UCHL1) and CCR7-PE-Cy7 (clone: G043H7) all from BD Pharmingen. CD8+ T cell subsets were further defined as follows: naive T cells (TN) as CD45RA CCR7+, T central memory cells (TCM) as CD45ROCCR7+, T effector memory cells (TEM) as CD45ROCCR7^− and T effector cells (TEff) as CD45RACCR7^−.

Another experiment deals with EL-4 thymoma cell line. Nature of the experiment: EL-4 thymoma tumor growth in mice. The class given is in vivo, mouse. The conditions noted are these: EL-4-bearing C57BL/6J mice; 1.5 mg histamine dihydrochloride i.p. three times per week; 240 μg each antibody i.p. days 3, 6 and 10. The protocol: The EL-4 thymoma cell line (provided by Dr. Ingo Schmitz, Otto-von-Guericke-University, Magdeburg, Germany) was cultured in DMEM medium (Sigma, Stockholm, Sweden) supplemented with 10% fetal calf serum, 100 U/ml penicillin, 100 μg/ml streptomycin and 2 mM L-glutamine, as described in […]. et al. The Journal of Immunology, volume 194, no. 10, pp. 5014-5021. C57BL/6J mice (6-8 weeks old, purchased from Charles River Laboratories, Sulzfeld, Germany) were inoculated subcutaneously with 1.75-2×10^5 EL-4 tumor cells and treated with saline (control) or 1.5 mg histamine dihydrochloride (purchased from Sigma-Aldrich, Stockholm, Sweden) diluted in saline, by intraperitoneal injections three times per week starting one day before inoculation of cells. Two-hundred forty μg of an antibody against the programmed cell death-1 receptor (anti-mouse PD1, clone RMP1-14, referred to as a-PD1) and 240 μg of an antibody against the programmed death-ligand 1 (anti-mouse PD-L1, clone 10F.9G2, referred to as α-PDL1) (both purchased from BioXcell, West Lebanon, N.H., USA, catalogue numbers BE0146 and BE0101, respectively) were administrated by intraperitoneal injections three, six and ten days after tumor inoculation. Tumors were measured manually every 2-3 days. Tumor size was calculated as length× width.

Experiment [2] relates to CD14+ CMML cells. Nature of the experiment: Extracellular ROS production by isoluminol-enhanced chemiluminescence. Format: cell-based, human. The settings on record: FACS-sorted CD14+ CMML cells stimulated with fMLF; HDC 50 or 100 μM. The protocol:
ROS production. The extracellular ROS production of primary CMML cells was measured by isoluminol-enhanced chemiluminescence as described. In brief, 2×10^5 cells were added to 96-well plates in the presence of isoluminol (10 μg/ml) and horseradish peroxidase (HRP; 4U/ml) and stimulated by the NOX2 inducer N-formyl-methionyl-leucyl-phenylalanine (fMLF; 0.1 μM). Light emission was recorded using a FLUOstar Omega platereader (BMG Labtech).

Experiment [3] concerns CD14+ CMML cells. Nature of the experiment: NK cell degranulation against primary CMML cells. Format: cell-based, human. The conditions noted are these: IL-2-stimulated NK cells; lintuzumab 1 μg/ml; HDC 100 μM added to lintuzumab. The protocol:
Assays of NK cell degranulation and ADCC. NK cell degranulation and cytotoxicity against patient-derived, malignant monocytes were assessed in experiments using lintuzumab (Abbvie, Stockholm, Sweden), a humanized anti-CD33 antibody. NK cells from healthy donors were co-incubated with monocytes, labeled with CellTrace violet stain (Life Technologies), in the presence of anti-CD107a-PE-Cy7 antibody (BD Pharmingen) and anti-oxidative compounds for four hours at 37° C. and 5% CO2. Thereafter, the cells were stained with LIVE/DEAD® fixable dead cell stain (Life Technologies) and assessed for lysis of monocytes and NK cell degranulation by flow cytometry. For culture experiments, cytotoxicity assays and confocal microscopy, Iscoves' modified Dulbecco minimum essential medium (IDMEM) supplemented with 10% human AB+ serum was used.

The next experiment concerns NK cells. Kind of experiment: NK cell receptor expression after exposure to PJ34. Format: cell-based, human. The conditions noted are these: PJ34 in the absence of ROS-producing cells. The protocol:
as §1

H2R, sequence (P25021 whole entry, species assumed): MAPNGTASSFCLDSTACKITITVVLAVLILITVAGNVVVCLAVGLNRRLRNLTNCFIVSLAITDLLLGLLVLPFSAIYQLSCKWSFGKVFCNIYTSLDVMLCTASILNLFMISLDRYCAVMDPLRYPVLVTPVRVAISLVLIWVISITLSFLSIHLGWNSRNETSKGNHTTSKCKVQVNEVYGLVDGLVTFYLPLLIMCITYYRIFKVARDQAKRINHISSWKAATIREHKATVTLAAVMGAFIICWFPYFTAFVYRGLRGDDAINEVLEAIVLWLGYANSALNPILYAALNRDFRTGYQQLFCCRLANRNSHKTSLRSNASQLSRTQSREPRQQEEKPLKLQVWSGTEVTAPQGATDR

With `CNC(=C[N+](=O)[O-])NCCOCc1ccc(CN(C)C)o1` [AH202399AA], on H2R, the “reduction of affinity at H2R relative to ranitidine” value is given as > 50 fold.

As to `c1ccc2c(c1)[I+]c1ccccc1-2` [DPI, diphenylene iodonium chloride], the “CMML-induced lymphocyte apoptosis / cell death” value in experiment [1] is on record as “prevented”. Besides, the “CMML cell-induced apoptosis of sorted CD8+ T cell subsets (TN, TCM, TEM, Teff)” value in experiment [1] (ratio 1:1, overnight) is recorded as “efficiently rescued all T cell subsets”.

In the case of `Cl.Cl.NCCc1c[nH]cn1` [HDC, histamine dihydrochloride], the tumor growth entry in the experiment with EL-4 thymoma cell line is listed as “significantly reduced tumor growth rate”. Besides, in the experiment with CD14+ CMML cells [2], the ROS production result was “significantly suppressed”. Also, the “NK cell degranulation response” value in the experiment with CD14+ CMML cells [3] was “further enhanced”. Moreover, in experiment [1], the “CMML-induced lymphocyte apoptosis / cell death” value is given as “prevented”.

On to `CN(C)CC(=O)Nc1ccc2[nH]c(=O)c3ccccc3c2c1` [PJ34], for which the “CMML-induced lymphocyte apoptosis / cell death” value in experiment [1] is reported as “rescued”. Further, the “NK cell receptor expression” value in the experiment with NK cells is listed as “No down-regulation”.

Consider catalase, for which the “CMML-induced lymphocyte apoptosis / cell death” value in experiment [1] is listed as “prevented”.

As for “lintuzumab: a humanized anti-CD33 antibody”, in the experiment with CD14+ CMML cells [3], the “NK cell degranulation response” value is recorded as “significantly augmented”.
